From ChEMBL document CHEMBL1201862, “PubChem BioAssay data set” (2004)
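Each compound was tested at five concentrations against cells in 96-well plates for 48 hours. GI50 = concentration required for 50% inhibition of growth.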 Calls of active or inactive are those of the source. Rule as the data show it: active = GI50 up to about 1.1 µM and inactive = higher. Starred links: 1 amine or outer side, 2 acyl side, 3 side chain; linkers in the order of their positions; H or OH if unused. Non-standard residues stand in square brackets, D forms with d. Residues, ends and D or L forms follow the SMILES beside them. *: point of attachment. X34 = CC(=O)N(C)SCC(N[*:1])C(=O)[*:2]; Cbz = O=C(OCc1ccccc1)*; Bn = c1ccc(C*)cc1; For = O=C*

Assays:
Assay in all cases: NCI anticancer screen, dose series, 48 h
[1] = tested on: RXF 393
[2] = tested on: 786-0
[3] = tested on: TK-10
[4] = tested on: ACHN
[5] = tested on: UACC-62
[6] = tested on: NCI-H460
[7] = tested on: MOLT-4
[8] = tested on: SF-268
[9] = tested on: U-251
[10] = tested on: M14
[11] = tested on: MCF7
[12] = tested on: SK-MEL-5
[13] = tested on: SW-620
[14] = tested on: SK-MEL-2
[15] = tested on: DU-145
[16] = tested on: PC-3
[17] = tested on: KM12
[18] = tested on: MDA-MB-435
[19] = tested on: K562
[20] = tested on: A498

Measured: GI50

CCOC(=O)[C@@H]1C[C@H]1c1ccc(O)c(O)c1
inactive: [1] 26.6 µM | [2] 41.4 µM | [3] 20.7 µM | [4] 65.2 µM | [5] 17.1 µM | [6] 58.2 µM | [7] 18.5 µM | [8] 67.6 µM | [9] 69.7 µM | [10] 34.8 µM | [11] 43.9 µM | [12] 16.6 µM | [13] 18.6 µM | [14] 18.2 µM | [15] 10.1 µM | [16] 14.6 µM | [17] > 100 µM | [18] 10.2 µM | [19] 10.9 µM

O=c1[nH]c2nc3ccccc3c(=O)n2/c1=C/c1ccc(O)cc1
inactive: [1] 40.2 µM | [2] 34.8 µM | [3] 53 µM | [4] 56.1 µM | [5] 27 µM | [7] 31.7 µM | [8] 25.4 µM | [9] 26.2 µM | [10] 36.8 µM | [11] 31 µM | [12] 52.7 µM | [13] 22.6 µM | [14] 75.3 µM | [15] 30.8 µM | [16] 45.3 µM | [17] 29.6 µM | [18] 25.5 µM

CSC1=N/C(=C\c2ccc(Cl)cc2)C(=O)N1CN1CCOCC1
inactive: [2] 33.4 µM | [3] 27.5 µM | [4] 31.3 µM | [5] 28.9 µM | [7] 40 µM | [8] 18.2 µM | [9] 27 µM | [10] 39 µM | [11] 5.75 µM | [12] 32.6 µM | [13] 36.7 µM | [20] 17.6 µM | [14] 52.8 µM | [15] 63.8 µM | [16] 38.9 µM | [17] 85.7 µM | [18] 58.3 µM | [19] 33 µM

CC(C)(/C=N/O)/[N+]([O-])=C/c1ccccc1
inactive: [1] > 100 µM | [2] > 100 µM | [3] > 100 µM | [4] > 100 µM | [5] > 100 µM | [6] > 100 µM | [7] > 100 µM | [8] > 100 µM | [9] > 100 µM | [10] > 100 µM | [11] > 100 µM | [12] > 100 µM | [13] > 100 µM | [14] > 100 µM | [15] > 100 µM | [16] > 100 µM | [17] > 100 µM | [18] > 100 µM

Cc1cccc(-c2cccc(COCc3cccc(-c4cccc(CO)n4)n3)n2)n1
inactive: [2] 38.5 µM | [3] 32.5 µM | [4] > 50 µM | [5] > 50 µM | [6] 43.8 µM | [7] 4.41 µM | [8] > 50 µM | [9] > 50 µM | [10] 34.4 µM | [11] 36.2 µM | [12] 11.7 µM | [13] > 50 µM | [20] > 50 µM | [14] > 50 µM | [15] > 50 µM | [16] 18.5 µM | [17] > 50 µM | [18] > 50 µM | [19] > 50 µM

NC(=O)C(c1ccccc1)N1OC2C(=O)N(c3ccccc3)C(=O)C2C1c1c2ccccc2c(Cl)c2ccccc12 (stereo not given)
inactive: [1] > 100 µM | [2] > 100 µM | [4] > 100 µM | [5] > 100 µM | [7] > 100 µM | [8] > 100 µM | [9] > 100 µM | [10] > 100 µM | [11] > 100 µM | [12] > 100 µM | [13] > 100 µM | [14] > 100 µM | [15] > 100 µM | [16] > 100 µM | [17] > 100 µM | [18] > 100 µM | [19] > 100 µM

O=C(COc1ccccc1)N(C(=O)N1CCN(c2ccccc2)CC1)S(=O)(=O)c1ccccc1
inactive: [2] 44.2 µM | [3] > 100 µM | [4] > 100 µM | [5] > 100 µM | [6] 71.9 µM | [7] 25.4 µM | [8] 60.8 µM | [9] 30.8 µM | [10] > 100 µM | [11] 45.9 µM | [12] > 100 µM | [13] 42.5 µM | [20] > 100 µM | [14] > 100 µM | [15] 98.6 µM | [16] 50.5 µM | [17] > 100 µM | [18] > 100 µM | [19] 33.8 µM

Cc1cc2ccc(N)nc2nc1O
inactive: [1] > 100 µM | [2] > 100 µM | [3] > 100 µM | [4] 52 µM | [5] > 100 µM | [6] > 100 µM | [8] 92.9 µM | [9] 99.1 µM | [10] > 100 µM | [11] > 100 µM | [12] > 100 µM | [13] > 100 µM | [14] > 100 µM | [15] > 100 µM | [16] > 100 µM | [17] > 100 µM | [18] > 100 µM

CCOP(=O)(OCC)C(C)(CC)NC1=NC(C(F)(F)F)(C(F)(F)F)NC(=O)N1 (stereo not given)
inactive: [1] > 100 µM | [2] > 100 µM | [3] > 100 µM | [4] > 100 µM | [5] > 100 µM | [6] > 100 µM | [7] > 100 µM | [8] > 100 µM | [9] > 100 µM | [10] > 100 µM | [11] > 100 µM | [12] > 100 µM | [13] > 100 µM | [14] > 100 µM | [15] > 100 µM | [16] > 100 µM | [17] > 100 µM | [18] > 100 µM | [19] > 100 µM

N#C/C(C(=O)Nc1ccccc1)=C(/N)N1CCOCC1
inactive: [2] > 100 µM | [4] > 100 µM | [5] > 100 µM | [6] > 100 µM | [7] > 100 µM | [9] > 100 µM | [10] > 100 µM | [11] > 100 µM | [12] > 100 µM | [13] > 100 µM | [20] > 100 µM | [14] > 100 µM | [15] > 100 µM | [16] > 100 µM | [17] > 100 µM | [18] > 100 µM | [19] > 100 µM

CCOC(=O)c1c(N2CCOCC2)[nH]c(=O)c(C(c2ccc(OC)cc2)c2c(O)c(C(=O)OCC)c(N3CCOCC3)[nH]c2=O)c1O
inactive: [1] > 100 µM | [2] > 100 µM | [3] > 100 µM | [4] > 100 µM | [5] > 100 µM | [6] > 100 µM | [7] > 100 µM | [8] > 100 µM | [9] > 100 µM | [10] > 100 µM | [11] > 100 µM | [12] > 100 µM | [13] > 100 µM | [20] > 100 µM | [15] > 100 µM | [16] > 100 µM | [17] > 100 µM | [18] > 100 µM | [19] > 100 µM

NS(=O)(=O)c1ccc(NC(=S)N/C=C2\C(=O)Nc3ccccc3C2=O)cc1
inactive: [1] > 100 µM | [2] > 100 µM | [3] > 100 µM | [4] > 100 µM | [5] > 100 µM | [6] > 100 µM | [7] > 100 µM | [8] > 100 µM | [9] > 100 µM | [10] > 100 µM | [11] > 100 µM | [12] > 100 µM | [13] > 100 µM | [14] > 100 µM | [15] > 100 µM | [16] > 100 µM | [17] > 100 µM | [18] > 100 µM | [19] > 100 µM

Nc1ccccc1C(=O)CC1OC(=O)c2ccccc21 (stereo not given)
inactive: [2] 88.5 µM | [3] > 100 µM | [4] > 100 µM | [5] 64.9 µM | [6] 61.2 µM | [7] > 100 µM | [8] 69.3 µM | [9] 48.4 µM | [10] > 100 µM | [11] > 100 µM | [13] > 100 µM | [20] 43.2 µM | [14] 14 µM | [15] 51.4 µM | [16] 41.7 µM | [17] 33.4 µM | [18] 57.4 µM | [19] > 100 µM

CC(=O)N(C)SCC(NC(=O)C(Cc1ccccc1)NC(=O)OCc1ccccc1)C(=O)NC(Cc1ccccc1)C(=O)NC(Cc1cn(C=O)c2ccccc12)C(=O)NC(CCCCNC(=O)OCc1ccccc1)C(=O)NC(C(=O)NC(CSN(C)C(C)=O)C(=O)NC(C(N)=O)C(C)OCc1ccccc1)C(C)OCc1ccccc1 (stereo not given) (Cbz-F[X34]FW(For)K(Cbz)T(Bn)[X34]T(Bn)-NH2; configuration not given here)
inactive: [1] 14.6 µM | [2] 24.1 µM | [3] 20.6 µM | [4] > 100 µM | [5] 84.9 µM | [6] > 100 µM | [7] > 100 µM | [8] > 100 µM | [9] 32.2 µM | [10] 46.9 µM | [11] > 100 µM | [12] > 100 µM | [13] > 100 µM | [14] 3.77 µM | [15] > 100 µM | [16] > 100 µM | [17] > 100 µM | [18] > 100 µM | [19] > 100 µM
